The source of these data is article PMC10819019 (Pharmaceutics, 2024).

Data set [1] is described as follows: Metabolite profiling in rat liver microsomes. The conditions noted are these: for Metabolite detection in incubates of saxagliptin: saxagliptin 100 μM, RLM 1 mg/mL, NADPH-generating system and/or L-cysteine, 2 h. The format is in vitro ADME. On the procedure: L-cysteine (100 mM), glutathione (2.5 mM), or UDPGA (5 mM) was added after pre-incubation with or without 100 mM L-cysteine at 37 °C for 5 min to an NADPH-generating system (1.3 mM of NADP^+, 3.3 mM of G6P, 1 unit/mL of G6PDH, and 3.3 mM of MgCl2) to initiate the microsomal reaction. The reaction was stopped by adding cold acetonitrile after microsomal incubation for 2 h.
In the presence of L-cysteine (100 mM) or glutathione (100 mM) in phosphate buffer (100 mM, pH of 7.4), 5-Hydroxysaxagliptin (100 μM) was incubated at 37 °C for 2 h. The supernatants were analyzed using high-resolution Orbitrap MS after incubation reaction termination and centrifugation.

Data set [2] is described as follows: Metabolite profiling in rats (bile, plasma, liver). The format is in vivo, male Sprague–Dawley rats. The conditions noted are these: saxagliptin 100 mg/kg intraperitoneal injection, samples up to 4 h. The text has this:
Male Sprague–Dawley (SD) rats (7 weeks old, 200–225 g) were purchased from SamTako Co. (Osan, Republic of Korea). The animals were acclimatized for one week in an animal facility at the College of Pharmacy, Kyungpook National University (Daegu, Republic of Korea). The Kyungpook National University Animal Care and Use Committee (KNU 2021-0120, 12 July 2021) approved the study protocol, conducted under the National Institutes of Health guidance for the care and use of laboratory animals. […] The bile duct was cannulated with polyethylene tubes (PE-10, Jungdo, Seoul, Republic of Korea) under isoflurane anesthesia (isoflurane vaporizer to 2% with oxygen flow at 0.8 L/min). […] Bile samples were then collected for 4 h. […] The liver tissues were immediately excised, gently washed with ice-cold saline-soaked wet tissue to remove the contaminated blood, and homogenized with 4 volumes of saline. Aliquots of plasma, bile, and 20% liver homogenates were stored at −80 °C until the analysis.
The liver homogenates were vortexed with the same volume of methanol/acetonitrile mixtures (1/1, v/v) and centrifuged (13,500× g, 10 min). The remaining pellets were reextracted twice, and pooled supernatants were dried and reconstituted with 50% methanol in water (100 μL) for LC-MS/MS analysis. Protein concentrations in the pellets were determined using a Bradford protein assay kit (Bio-Rad Laboratories, Hercules, CA, USA) with bovine serum albumin as a standard. The rat bile and plasma (200 μL) samples were vortexed with the same methanol/acetonitrile mixture volume (1/1, v/v). The mixture was centrifuged after vortexing, and the supernatants were dried to complete dryness and reconstituted with 50% methanol in water (100 μL) for LC-MS/MS analysis. The contents of biliverdin in the bile samples were analyzed by measuring ultraviolet absorbance at 380 nm using a microplate reader (Infinite M200 PRO, TECAN, Mannedorf, Switzerland) after 10-fold dilution with 50% methanol.

The conditions of data set [3]: cited from earlier work.

Each structure is given as a SMILES string.

On to `N=C1NC(C23CC4CC(CC(O)(C4)C2)C3)N2C1CC1CC12` (stereo not shown) [Metabolite M1, Saxagliptin cyclic amidine], for which, in data set [1], the “Metabolite detection in incubates of saxagliptin” value is “found in the incubation sample of saxagliptin with buffer solution (Figure 5a) and RLM (Figure 5c) in the presence of +L-cysteine”.
Same read-out and setting: to `N#CC1CC2CC2N1C(=O)C(N)C12CC3CC(O)(CC(O)(C3)C1)C2` (stereo not shown) [Metabolite M2, 5-Hydroxysaxagliptin] belongs “observed in rat liver microsomal incubation samples regardless of the addition of L-cysteine”.
As for `NC(C(=O)N1C(C2=NC(C(=O)O)CS2)CC2CC21)C12CC3CC(CC(O)(C3)C1)C2` (stereo not shown) [Metabolite M3, Saxagliptin–cysteine conjugate], the “Metabolite detection in rat bile, plasma and liver tissues” value (“Metabolite detection in rat bile” for short) in data set [2] is on record as “observed in rats”. The “Metabolite detection in incubates of saxagliptin” value in data set [1] was “formed in an enzyme-nonspecific manner”.
Regarding `NC(C(=O)N1C(C2=NC(C(=O)O)CS2)CC2CC21)C12CC3CC(O)(CC(O)(C3)C1)C2` (stereo not shown) [Metabolite M4, 5-Hydroxysaxagliptin–cysteine conjugate], in data set [1] (microsomal incubation with 5-hydroxysaxagliptin in the presence of L-cysteine), the “Metabolite detection in incubate of 5-hydroxysaxagliptin with L-cysteine” value is listed as “detected”.
Take `NC(C(=O)N1C(C2=NC(C(=O)NCC(=O)O)CS2)CC2CC21)C12CC3CC(CC(O)(C3)C1)C2` (stereo not shown) [Metabolite M5, Saxagliptin–cysteinylglycine conjugate]: in data set [2], the “Metabolite detection in rat bile” value is “found in rat bile, plasma, and liver tissues”.
Turning to `NC(C(=O)N1C(C2=NC(C(=O)NCC(=O)O)CS2)CC2CC21)C12CC3CC(O)(CC(O)(C3)C1)C2` (stereo not shown) [Metabolite M6, 5-Hydroxysaxagliptin–cysteinylglycine conjugate], the “Metabolite detection in rat bile” value in data set [2] was “observed in rats”.
As for `N#CC1CC2CC2N1C(=O)C(N)C12CC3CC(CC(OS(=O)(=O)O)(C3)C1)C2` (stereo not shown) [Metabolite M7, Saxagliptin-O-sulfate], in data set [2], the “Metabolite detection in rat bile” value is given as “only found in rat bile”.
The same measure, in the same setting: in the case of `N#CC1CC2CC2N1C(=O)C(N)C12CC3CC(CC(OC4OC(C(=O)O)C(O)C(O)C4O)(C3)C1)C2` (stereo not shown) [Metabolite M8, Saxagliptin-O-glucuronide] it was “observed in rat bile, plasma, and liver tissues”.
Regarding `Cn1c(=O)cc(N2CCC[C@@H](N)C2)n(Cc2ccccc2C#N)c1=O` [alogliptin], in data set [3], the “Stability on incubation with L-cysteine” value is “stable”.
As to `Cc1cc2ncc(C(=O)NCC(C)(C)NCC(=O)N3CCC[C@H]3C#N)cn2n1` [anagliptin], in data set [3], the “Stability on incubation with L-cysteine” value is “unstable”.
Take `CC#CCn1c(N2CCC[C@@H](N)C2)nc2c1c(=O)n(Cc1nc(C)c3ccccc3n1)c(=O)n2C` [linagliptin]: the “Stability on incubation with L-cysteine” value in data set [3] is “stable”.
`N[C@@H](CC(=O)N1CCn2c(nnc2C(F)(F)F)C1)Cc1cc(F)c(F)cc1F` [sitagliptin]: in data set [3], the “Stability on incubation with L-cysteine” value was “stable”.
